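Cells were grown in 96-well plates and exposed to each compound for 48 hours at five concentrations; endpoints were interpolated linearly between bracketing concentrations, or set to the highest concentration if not reached. GI50 = concentration required for 50% inhibition of growth.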 The source made the active and inactive calls. Cut-off read from the data, not from the text of the source: active = GI50 up to about 1.1 µM and inactive = higher.
Legend:
Assay in all cases: DTP human tumour cell line panel, 48 h
TK-10 = test system: TK-10
UO-31 = test system: UO-31
SNB-19 = test system: SNB-19
HL-60 = test system: HL-60
OVCAR-3 = test system: OVCAR-3
OVCAR-8 = test system: OVCAR-8
ACHN = test system: ACHN
NCI/ADR-RES = test system: NCI/ADR-RES
DU-145 = test system: DU-145
HT-29 = test system: HT-29
SF-295 = test system: SF-295
HOP-92 = test system: HOP-92
NCI-H226 = test system: NCI-H226
K562 = test system: K562
CCRF-CEM = test system: CCRF-CEM
OVCAR-4 = test system: OVCAR-4
A549 = test system: A549
MCF7 = test system: MCF7
MDA-MB-435 = test system: MDA-MB-435
SK-MEL-2 = test system: SK-MEL-2

COc1ccc(CC[N+]2(C)COc3cc4oc(=O)cc(C)c4cc3C2)cc1OC (stereo not given)
GI50 (TK-10): > 100 µM (inactive) | GI50 (UO-31): > 100 µM (inactive) | GI50 (SNB-19): > 100 µM (inactive) | GI50 (HL-60): > 100 µM (inactive) | GI50 (OVCAR-3): > 100 µM (inactive) | GI50 (OVCAR-8): > 100 µM (inactive) | GI50 (ACHN): > 100 µM (inactive) | GI50 (NCI/ADR-RES): > 100 µM (inactive) | GI50 (DU-145): > 100 µM (inactive) | GI50 (HT-29): > 100 µM (inactive) | GI50 (SF-295): > 100 µM (inactive) | GI50 (HOP-92): > 100 µM (inactive) | GI50 (NCI-H226): > 100 µM (inactive) | GI50 (K562): 2.45 µM (inactive) | GI50 (CCRF-CEM): > 100 µM (inactive) | GI50 (OVCAR-4): > 100 µM (inactive) | GI50 (A549): > 100 µM (inactive) | GI50 (MCF7): > 100 µM (inactive) | GI50 (MDA-MB-435): > 100 µM (inactive) | GI50 (SK-MEL-2): > 100 µM (inactive)

N#CC1(C#N)C(c2ccccc2)C=CC(c2ccc([N+](=O)[O-])cc2)C1(C#N)C#N (stereo not given)
GI50 (TK-10): 3.65 µM (inactive) | GI50 (UO-31): 13.7 µM (inactive) | GI50 (SNB-19): 15.1 µM (inactive) | GI50 (HL-60): 0.223 µM (active) | GI50 (OVCAR-3): 9.98 µM (inactive) | GI50 (OVCAR-8): 11.2 µM (inactive) | GI50 (ACHN): 3.43 µM (inactive) | GI50 (NCI/ADR-RES): 8.38 µM (inactive) | GI50 (DU-145): 14.2 µM (inactive) | GI50 (HT-29): 3.61 µM (inactive) | GI50 (SF-295): 18.5 µM (inactive) | GI50 (HOP-92): 3.43 µM (inactive) | GI50 (NCI-H226): 17.3 µM (inactive) | GI50 (K562): 3.01 µM (inactive) | GI50 (CCRF-CEM): 0.278 µM (active) | GI50 (OVCAR-4): 16.5 µM (inactive) | GI50 (A549): 17.7 µM (inactive) | GI50 (MCF7): 5.98 µM (inactive) | GI50 (MDA-MB-435): 3.37 µM (inactive) | GI50 (SK-MEL-2): 17.1 µM (inactive)

CC(=O)c1ccc(Oc2c3ccccc3nc3ccccc23)cc1
GI50 (TK-10): 6.76 µM (inactive) | GI50 (UO-31): 3.83 µM (inactive) | GI50 (SNB-19): 18.7 µM (inactive) | GI50 (HL-60): 0.207 µM (active) | GI50 (OVCAR-3): 7.53 µM (inactive) | GI50 (OVCAR-8): 7.83 µM (inactive) | GI50 (ACHN): 4.15 µM (inactive) | GI50 (NCI/ADR-RES): 11.3 µM (inactive) | GI50 (DU-145): 4.5 µM (inactive) | GI50 (HT-29): 2.73 µM (inactive) | GI50 (SF-295): 14.6 µM (inactive) | GI50 (HOP-92): 12.4 µM (inactive) | GI50 (NCI-H226): 9.1 µM (inactive) | GI50 (K562): 3.41 µM (inactive) | GI50 (CCRF-CEM): 2.82 µM (inactive) | GI50 (OVCAR-4): 5.93 µM (inactive) | GI50 (A549): 9.35 µM (inactive) | GI50 (MCF7): 3.22 µM (inactive) | GI50 (MDA-MB-435): 3.27 µM (inactive) | GI50 (SK-MEL-2): 8.59 µM (inactive)

C[C@]12CCC(=O)C=C1CC[C@@H]1[C@@H]2CC[C@]2(C)C(=O)/C(=C/c3ccncc3)C[C@@H]12
GI50 (TK-10): 18.1 µM (inactive) | GI50 (UO-31): 12.6 µM (inactive) | GI50 (SNB-19): 13.2 µM (inactive) | GI50 (HL-60): 8.51 µM (inactive) | GI50 (OVCAR-3): 13 µM (inactive) | GI50 (OVCAR-8): 23.3 µM (inactive) | GI50 (ACHN): 14.8 µM (inactive) | GI50 (NCI/ADR-RES): 26.2 µM (inactive) | GI50 (DU-145): 14.5 µM (inactive) | GI50 (HT-29): 10.2 µM (inactive) | GI50 (SF-295): 15.3 µM (inactive) | GI50 (HOP-92): 19.1 µM (inactive) | GI50 (NCI-H226): 16.9 µM (inactive) | GI50 (K562): 11.7 µM (inactive) | GI50 (CCRF-CEM): 14.7 µM (inactive) | GI50 (OVCAR-4): 17.2 µM (inactive) | GI50 (A549): 16.4 µM (inactive) | GI50 (MCF7): 11.5 µM (inactive) | GI50 (MDA-MB-435): 17.1 µM (inactive) | GI50 (SK-MEL-2): 14.5 µM (inactive)

CN(C)CCSS(=O)(=O)O
GI50 (TK-10): > 100 µM (inactive) | GI50 (UO-31): > 100 µM (inactive) | GI50 (SNB-19): > 100 µM (inactive) | GI50 (HL-60): > 100 µM (inactive) | GI50 (OVCAR-3): 9.16 µM (inactive) | GI50 (OVCAR-8): > 100 µM (inactive) | GI50 (ACHN): > 100 µM (inactive) | GI50 (NCI/ADR-RES): > 100 µM (inactive) | GI50 (DU-145): > 100 µM (inactive) | GI50 (HT-29): > 100 µM (inactive) | GI50 (SF-295): 13.3 µM (inactive) | GI50 (HOP-92): > 100 µM (inactive) | GI50 (NCI-H226): > 100 µM (inactive) | GI50 (K562): > 100 µM (inactive) | GI50 (CCRF-CEM): > 100 µM (inactive) | GI50 (OVCAR-4): > 100 µM (inactive) | GI50 (A549): > 100 µM (inactive) | GI50 (MCF7): > 100 µM (inactive) | GI50 (MDA-MB-435): > 100 µM (inactive) | GI50 (SK-MEL-2): > 100 µM (inactive)
